Drawing on ChEMBL document CHEMBL1138478, “Application of a proteolysis/mass spectrometry method for investigating the effects of inhibitors on hydroxylase structure” (J Med Chem, 2009), this text covers IC50 for two compounds.

The test is described as follows: Inhibition of human recombinant PHD2 (181-426) expressed in Escherichia coli BL21 (DE3) by TR-FRET assay. For orientation: In TR-FRET formats the signal depends on donor and acceptor labels being close together.

Broadly, the IC50 is the concentration that inhibits the measured activity by half. For `O=C(O)c1ccnc(C(=O)O)c1`, the IC50 came to 1.91 µM.

`O=C(O)/C=C/C(=O)O` [FUMARIC ACID]: the IC50 was 19.1 µM.
